Experimental findings from patent US20240270748A1 (Merck Patent GmbH, priority 2021, published 2024) are described below.

Structures are written as SMILES.

One test has as its system NCI-H226 cells. The test can be described thus: Viability assay in NCI-H226 (Yap-dependent) cells, CyQuant. The note with it: Homo sapiens, NCI-H226, 96 h, class symbols. Format: cell-based, human. An outline of the steps: (§1)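 Seeded cells were dosed 24 h later in duplicate (10-point, 1:3 dilutions, top 30 μM final, 0.3% DMSO) and incubated 96 h at 37 °C. Viability was read with CyQUANT DNA dye after 1 h, fluorescence bottom read. NCI-H226 in RPMI 1640 medium; SW620 YAP/TAZ CRISPR knockout in DMEM/F-12 medium.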

Another test relates to YAP-TEAD interaction. Nature of the test: SK-HEP-1 reporter assay (8xTEAD responsive elements driving NanoLuc luciferase). Format: cell-based. The essentials:
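Reporter read-out: NanoLuc luminescence from 8×TEAD elements stably integrated in SK-HEP-1 cells, after 24 h compound exposure at 37° C. Ten concentrations tested in duplicate, top 30 μM final, 0.3% DMSO; IC50 from curve.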
(In a reporter assay the amount or activity of a reporter protein is the signal.)

In a further test the test system is SW620 Yap KO cells. Nature of the test: Viability assay in SW620 Yap KO (Yap independent) cells, CyQuant. The note with it: Homo sapiens, SW-620, 96 h, n.d. = value not detectable below threshold given in parentheses. Format: cell-based. An outline of the steps:
as §1

The mark [1] stands for this setting: Homo sapiens, SK-HEP1, SK-HEP-1 reporter assay, class symbols.
[2] abbreviates: ND = not determinable within the entire range.

The term IC50 denotes the concentration at which inhibition is half-maximal. As to `Cc1snc2c1c1cc(C(=O)NCc3ccncn3)ccc1n2-c1ccc(C(F)(F)F)cc1` [Example C64, 3-methyl-N-[(pyrimidin-4-yl)methyl]-8-[4-(trifluoromethyl)phenyl]-8H-[1,2]thiazolo[3,4-b]indole-5-carboxamide], the IC50 was 1 to 100 nM with NCI-H226 cells, 10 to 100 nM in the test with YAP-TEAD interaction (setting [1]) and over 3200 nM in the test on SW620 Yap KO cells (setting [2]).
With `Cn1nc2c3cc(C(=O)NC(CCO)c4ccccn4)ccc3n(-c3ccc(C(F)(F)F)cc3)c2n1` (stereo not drawn) [Example C226, N-[3-hydroxy-1-(pyridin-2-yl)propyl]-2-methyl-4-[4-(trifluoromethyl)phenyl]-2H,4H-[1,2,3]triazolo[4,5-b]indole-7-carboxamide], the results for the IC50 in the test on NCI-H226 cells, in the test on YAP-TEAD interaction (setting [1]) and with SW620 Yap KO cells were 1 to 100 nM, 10 to 100 nM and over 3000 nM, respectively.
On to `CNC(=O)c1ccc2c(c1)c1c(C)n(C)nc1n2-c1ccc(C(F)(F)F)cc1` [Example C96, N,2,3-trimethyl-8-[4-(trifluoromethyl)phenyl]-2H,8H-pyrazolo[3,4-b]indole-5-carboxamide], for which the IC50 is 1 to 100 nM in the test on NCI-H226 cells, 10 to 100 nM with YAP-TEAD interaction (setting [1]) and over 3200 nM with SW620 Yap KO cells (setting [2]).
With `Cc1snc2c1c1cc(C(=O)NC3CC3)ccc1n2-c1ccc(C(F)(F)F)cc1` [Example C41, N-cyclopropyl-3-methyl-8-[4-(trifluoromethyl)phenyl]-8H-[1,2]thiazolo [3,4-b]indole-5-carboxamide], the IC50 in the test with NCI-H226 cells was 1 to 100 nM; in the test on YAP-TEAD interaction (setting [1]), 10 to 100 nM; with SW620 Yap KO cells (setting [2]), over 30000 nM.
The corresponding values for `Cc1snc2c1c1cc(C(=O)N[C@@H](CO)C3CCC3)ccc1n2-c1ccc(C(F)(F)F)cc1` [Example C91, N-[(1R)-1-cyclobutyl-2-hydroxyethyl]-3-methyl-8-[4-(trifluoromethyl)phenyl]-8H-[1,2]thiazolo[3,4-b]indole-5-carboxamide] are 1 to 100 nM, 10 to 100 nM and over 3200 nM.
Regarding `Cc1snc2c1c1cc(C(=O)N=S(C)(=O)CCCO)ccc1n2-c1ccc(C(F)(F)F)cc1` (single isomer, unassigned) [Example C104], the IC50 was 1 to 100 nM in the test on NCI-H226 cells; 10 to 100 nM in the test with YAP-TEAD interaction (SK-HEP-1 reporter assay, class symbols); over 3200 nM in the test on SW620 Yap KO cells (setting [2]).
With `Cn1cc2c3cc(C(=O)O)ccc3n(-c3ccc(C(F)(F)F)c(F)c3)c2n1` [Example C164, 8-[3-fluoro-4-(trifluoromethyl)phenyl]-2-methyl-2H,8H-pyrazolo[3,4-b]indole-5-carboxylic acid], the IC50 in the test with NCI-H226 cells is 1 to 100 nM; in the test on YAP-TEAD interaction (setting [1]), 10 to 100 nM; in the test on SW620 Yap KO cells, over 30000 nM.
As to `Cc1snc2c1c1cc(C(=O)N=S(C)(=O)CCO)ccc1n2-c1ccc(C(F)(F)F)cc1` (stereo not drawn) [Example C30, N-[(2-hydroxyethyl)(methyl)oxo-¿6-sulfanylidene]-3-methyl-8-[4-(trifluoromethyl)phenyl]-8H-[1,2]thiazolo[3,4-b]indole-5-carboxamide], the IC50 in the test on NCI-H226 cells was 1 to 100 nM; with YAP-TEAD interaction (setting [1]), 10 to 100 nM; in the test with SW620 Yap KO cells (setting [2]), over 3000 nM.
As for `Cn1cc2c3cc(S(=O)(=O)NCCCO)ccc3n(-c3ccc(C(F)(F)F)cc3)c2n1` [Example C85, N-(3-hydroxypropyl)-2-methyl-8-[4-(trifluoromethyl)phenyl]-2H,8H-pyrazolo[3,4-b]indole-5-sulfonamide], the IC50 was 1000 to 10000 nM in the test with NCI-H226 cells; over 30000 nM with YAP-TEAD interaction (Homo sapiens, SK-HEP1, SK-HEP-1 reporter assay, n.d. = value not detectable below threshold given in parentheses, ND = not determinable within the entire range); over 30000 nM with SW620 Yap KO cells (setting [2]).
Regarding `C[C@H](CO)NC(=O)c1ccc2c(c1)c1cn(C)nc1n2-c1ccc(C(F)(F)F)cn1` [Example C148, N-[(2R)-1-hydroxypropan-2-yl]-2-methyl-8-[5-(trifluoromethyl)pyridin-2-yl]-2H,8H-pyrazolo[3,4-b]indole-5-carboxamide], the half-inhibitory concentration (IC50) in the test with NCI-H226 cells is 1 to 100 nM; in the test with YAP-TEAD interaction (setting [1]) it was 10 to 100 nM; in the test with SW620 Yap KO cells (setting [2]) it was over 30000 nM.
